12 compounds from patent US11446287B2, “Compounds and methods for EP300 or CBP modulation and indications therefor” (Opna Immuno-Oncology SA, priority 2019, dated 2022) can be followed below.

The target of the assay is T1, Recombinant human CBP containing the bromodomain (CBP-BD (1043-1159)) (Homo sapiens, UniProt Q92793).
T1 construct: Recombinant human CBP bromodomain (CBP-BD (1043-1159)); made in house; host or cells: E. coli BL21-CodonPlus (DE3), modified pET vector
The assay can be described thus: CBP Alphascreen binding assay. The following applies: read-out: CREBBP (CBP) IC50. In a few lines:
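Buffer: 50 mM HEPES pH 7.5, 50 mM NaCl, 0.01% BSA, 0.01% Triton X-100, 2 mM DTT. The signal was normalised to plate controls and fitted with a four-parameter curve to give IC50.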
In general terms: Bead proximity is the source of the signal in Alpha formats.

T1 sequence (Q92793 1081-1197): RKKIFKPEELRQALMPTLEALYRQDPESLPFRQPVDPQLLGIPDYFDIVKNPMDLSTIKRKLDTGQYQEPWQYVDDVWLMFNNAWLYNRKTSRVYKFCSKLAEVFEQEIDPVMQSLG

Broadly, the IC50 is the concentration that gives 50% inhibition. As for `Cc1noc(C)c1-c1cnc2c(c1)c(-c1ccc(C(N)=O)cc1)cn2C(c1ccccn1)C1CCCC1` (stereo not drawn) [P-0020, 4-(1-(cyclopentyl(pyridin-2-yl)methyl)-5-(3,5-dimethylisoxazol-4-yl)-1H-pyrrolo[2,3-b]pyridin-3-yl)benzamide], the IC50 fell in the range of 1 to 8 µM.
Under `CNC(=O)c1ccc(-c2cn(C(c3ccccn3)C3CCCC3)c3ncc(-c4c(C)noc4C)cc23)cc1` (stereo not drawn) [P-0021, 4-(1-(cyclopentyl(pyridin-2-yl)methyl)-5-(3,5-dimethylisoxazol-4-yl)-1H-pyrrolo[2,3-b]pyridin-3-yl)-N-methylbenzamide] stands 1 to 8 µM; under `Cc1noc(C)c1-c1cnc2c(c1)c(-c1ccc(C#N)cc1)cn2C(c1ccccn1)C1CCCC1` (stereo not drawn) [P-0022, 4-(1-(cyclopentyl(pyridin-2-yl)methyl)-5-(3,5-dimethylisoxazol-4-yl)-1H-pyrrolo[2,3-b]pyridin-3-yl)benzonitrile], 8 to 1000 µM; under `Cc1noc(C)c1-c1cnc2c(c1)c(-c1ccc3c(c1)CNC3=O)cn2C(c1ccccn1)C1CCCC1` (stereo not drawn) [P-0023, 5-(1-(cyclopentyl(pyridin-2-yl)methyl)-5-(3,5-dimethylisoxazol-4-yl)-1H-pyrrolo[2,3-b]pyridin-3-yl)isoindolin-1-one], 1 to 8 µM.
For the compound `Cc1noc(C)c1-c1cnc2c(c1)c(-c1ccc(-c3nn[nH]n3)cc1)cn2C(c1ccccn1)C1CCCC1` (stereo not drawn) [P-0024, 4-(3-(4-(2H-tetrazol-5-yl)phenyl)-1-(cyclopentyl(pyridin-2-yl)methyl)-1H-pyrrolo[2,3-b]pyridin-5-yl)-3,5-dimethylisoxazole], the IC50 was in the range of 1 to 8 µM.
In the case of `Cc1noc(C)c1-c1cnc2c(c1)c(-c1ccc(C(=O)O)c(F)c1)cn2C(c1ccccn1)C1CCCC1` (stereo not drawn) [P-0025, 4-(1-(cyclopentyl(pyridin-2-yl)methyl)-5-(3,5-dimethylisoxazol-4-yl)-1H-pyrrolo[2,3-b]pyridin-3-yl)-2-fluorobenzoic acid] it was 0.0001 to 1 µM; in that of `Cc1noc(C)c1-c1cnc2c(c1)c(-c1ccc(C(=O)O)nc1)cn2C(c1ccccn1)C1CCCC1` (stereo not drawn) [P-0026, 5-(1-(cyclopentyl(pyridin-2-yl)methyl)-5-(3,5-dimethylisoxazol-4-yl)-1H-pyrrolo[2,3-b]pyridin-3-yl)picolinic acid], 0.0001 to 1 µM.
In the case of `Cc1cc(-c2c(C(F)(F)F)n([C@@H](C)c3ccccn3)c3cc(-c4c(C)noc4C)cnc23)ccc1C(=O)O` [P-0243, (S)-4-(6-(3,5-dimethylisoxazol-4-yl)-1-(1-(pyridin-2-yl)ethyl)-2-(trifluoromethyl)-1H-pyrrolo[3,2-b]pyridin-3-yl)-2-methylbenzoic acid] it was 1 to 8 µM.
In the case of `COc1cc(-c2c(C(F)(F)F)n([C@@H](C)c3ccccn3)c3cc(-c4c(C)noc4C)cnc23)ccc1C(=O)O` [P-0244, (S)-4-(6-(3,5-dimethylisoxazol-4-yl)-1-(1-(pyridin-2-yl)ethyl)-2-(trifluoromethyl)-1H-pyrrolo[3,2-b]pyridin-3-yl)-2-methoxybenzoic acid] it was 1 to 8 µM.
Take `Cc1noc(C)c1-c1cnc2c(-c3cccc(C(=O)O)c3F)c(C(F)(F)F)n([C@@H](C)c3ccccn3)c2c1` [P-0245, (S)-3-(6-(3,5-dimethylisoxazol-4-yl)-1-(1-(pyridin-2-yl)ethyl)-2-(trifluoromethyl)-1H-pyrrolo[3,2-b]pyridin-3-yl)-2-fluorobenzoic acid]: the IC50 lay in the range of 0.0001 to 1 µM.
Consider `Cc1noc(C)c1-c1cnc2c(-c3cccc(C(=O)O)c3C)c(C(F)(F)F)n([C@@H](C)c3ccccn3)c2c1` [P-0246, (S)-3-(6-(3,5-dimethylisoxazol-4-yl)-1-(1-(pyridin-2-yl)ethyl)-2-(trifluoromethyl)-1H-pyrrolo[3,2-b]pyridin-3-yl)-2-methylbenzoic acid], for which the IC50 fell in the range of 1 to 8 µM.
Take `Cc1noc(C)c1-c1cnc2c(-c3cccc(C(=O)O)c3Cl)c(C(F)(F)F)n([C@@H](C)c3ccccn3)c2c1` [P-0247, (S)-2-chloro-3-(6-(3,5-dimethylisoxazol-4-yl)-1-(1-(pyridin-2-yl)ethyl)-2-(trifluoromethyl)-1H-pyrrolo[3,2-b]pyridin-3-yl)benzoic acid]: the IC50 is 0.0001 to 1 µM.
